Assay results published in PMC3720542, “Population pharmacokinetics of mefloquine, piperaquine and artemether-lumefantrine in Cambodian and Tanzanian malaria patients” (Malaria Journal, 2013).
In brackets after ≈: the same amount, converted by molar mass. Several values for one entry are separate records, joined by “and”; a condition that tells them apart may be missing. Identical values can stand only once. Like-named read-outs stand apart in the source and are kept apart here. Values belong to the compound of their own block, whether it stands above or below them.

Experiments:
[1] = cited from earlier work
[2] = Population pharmacokinetic analysis (NONMEM) of artemether-lumefantrine and metabolites in Tanzanian malaria patients (Kibaoni); assay type: in vivo, human
Method: Three studies have been conducted, one in Tanzania and two in Cambodia. The study profiles are described in Figure 1. The first study was performed during March to May 2008 at the Kibaoni Health Centre, Kilombero district, Morogoro region, Tanzania. […] Six AM-LF (Coartem®, Novartis Pharma, Switzerland) doses were administered at time 0, 8, […] according to body weight (see Table 1); patients were either admitted for three days or asked to come back to the health facility for each drug administration. Mothers of breastfed patients were encouraged to feed their children and patients admitted were provided with food. Patients who reported that they have not eaten within two hours to prior dose intake were instructed to eat as soon as possible. Patients were seen by the clinical officer on days 0, 1, 2, 3, 7, 14, 28, and 42. A blood sample for pharmacokinetic measurement was taken at baseline (pre-dose on day 0) and on days 1, 2, and 7 at pre-defined random times after the last dosing. At each visit, a filter paper sample and a thin and thick smear were taken, in addition to axillary temperature, respiratory rate and haemoglobin measurements (only on days 0, 28 and 42) as well as evaluation of symptoms (e.g. headache, vomiting, and diarrhea). The exact dose and time of last drug intake, body weight, height, age, sex, food intake and concomitant medications were carefully recorded. If patients suffered from concomitant illnesses they were provided with additional treatment (paracetamol, mebendazole, metronidazole, cloxacillin, amoxicillin). Samples of 2 ml of venous blood were collected on an EDTA Vacutainer and kept on ice for no longer than 6 h after withdrawal and then aliquoted into whole blood, plasma and pellet and immediately stored in liquid nitrogen or a -80°C freezer. […] The laboratory is part of the quality control system of the World-Wide Antimalarial Resistance Network (WWARN). The pharmacokinetic analysis for each drug taken separately was performed using the NONMEM computer program Version 6 (NM-TRAN version II). It uses mixed (fixed and random) effects regression to estimate population means and variances of the pharmacokinetic parameters and to identify factors that influence them. One-, two- and three-compartment pharmacokinetic models with first-order absorption, with and without absorption lag times, were compared. Additional one or two-compartments were used for anti-malarials presenting metabolite concentrations (AM and LF). The final parameters estimated were systemic clearance (CL/F), inter-compartmental clearance (Q/F), central volume of distribution (VC/F), peripheral volume of distribution (VP/F) and absorption rate constant (ka). Since no intravenous drug concentration data were available, these parameters represent apparent values. Where available, metabolite data were included into the model and metabolism rate constant from drug compartment to metabolite compartment (k23) and metabolite clearance (CLmet) were also estimated. Owing to identifiability problems, the volume of distribution of the metabolites (VM) DLF and DHA were assumed to equal LF and AM VC, respectively. […] The observed baseline residual plasma concentrations were fitted by estimating a factor (F0) that provided an estimation of the residual doses from previous treatment. […] Proportional and combined proportional-and-additive error models were compared to describe intra-patient (residual) variability for the mother compound, and if available for its metabolite using Cpij(1 + ε1ij) + ε2ij or Cmij(1 + ε3ij) + ε4ij, where Cpij are the corresponding predicted i^th drug plasma concentration and Cmij are the predicted metabolite concentration for the j^th individual, and ε1ij, ε2ij, ε3ij, ε4ij, are independent normally distributed residual error terms with a mean of zero and a variance of σ^2_1, σ^2_2, σ^2_3, σ^2_4. The covariate analysis was performed using a stepwise insertion/deletion approach. […]

[3] = test system: malaria; design: method as in earlier work; conditions: listed as LF, cited from earlier work
[4] = test system: malaria; design: method as in PMID 10579474; conditions: cited from earlier work
[5] = clinical; conditions: human, in vivo
Method: The second study was conducted during October 2007 to February 2008 at the Phnom Dék Health Centre, Rovieng district, Preah Vihear province, Cambodia. Entry criteria and study procedures were identical as in the Tanzanian study with minor adaptations described below. […] Pregnant or lactating women were excluded. Three doses of AS (Arsumax®, Sanofi-Aventis, France) and MQ (Eloquine®, Medochemie Ltd, Cyprus) were given according to body weight on three consecutive days (see Table 1). Patients were seen by the clinical officer on days 1, 2, 3, 7, 14, 21, 28, 35 and 42. Sampling for the pharmacokinetic study was done at pre-dose and approximately 1 h after first dose intake on day 0, and on days 1, 2, 7 and 14 at pre-defined random times after drug intake.
Samples of 2 ml of venous blood were collected on an EDTA Vacutainer and kept on ice for no longer than 6 h after withdrawal and then aliquoted into whole blood, plasma and pellet and immediately stored in liquid nitrogen or a –80°C freezer. […] The method was validated according to FDA recommendations, including assessment of extraction yield, matrix effect variability, overall process efficiency, standard addition experiments as well as anti-malarials short- and long-term stability in plasma. […] The laboratory is part of the quality control system of the World-Wide Antimalarial Resistance Network (WWARN).
The pharmacokinetic analysis for each drug taken separately was performed using the NONMEM computer program Version 6 (NM-TRAN version II). It uses mixed (fixed and random) effects regression to estimate population means and variances of the pharmacokinetic parameters and to identify factors that influence them.
One-, two- and three-compartment pharmacokinetic models with first-order absorption, with and without absorption lag times, were compared. Additional one or two-compartments were used for anti-malarials presenting metabolite concentrations (AM and LF). The final parameters estimated were systemic clearance (CL/F), inter-compartmental clearance (Q/F), central volume of distribution (VC/F), peripheral volume of distribution (VP/F) and absorption rate constant (ka). Since no intravenous drug concentration data were available, these parameters represent apparent values. Where available, metabolite data were included into the model and metabolism rate constant from drug compartment to metabolite compartment (k23) and metabolite clearance (CLmet) were also estimated. Owing to identifiability problems, the volume of distribution of the metabolites (VM) DLF and DHA were assumed to equal LF and AM VC, respectively. […] The observed baseline residual plasma concentrations were fitted by estimating a factor (F0) that provided an estimation of the residual doses from previous treatment.
Exponential errors following a log-normal distribution were assumed for the description of inter-patient variability of the pharmacokinetic parameters and were of the form: θi=θ×e^ηj where θi is the individual pharmacokinetic parameter value in the j^th individual, θ is the population parameter estimate, and ηj is the random effect value, which is independently and normally distributed with a mean of 0 and variance ω^2. Proportional and combined proportional-and-additive error models were compared to describe intra-patient (residual) variability for the mother compound, and if available for its metabolite using Cpij(1 + ϵ1ij) + ϵ2ij or Cmij(1 + ϵ3ij) + ϵ4ij, where Cpij are the corresponding predicted i^th drug plasma concentration and Cmij are the predicted metabolite concentration for the j^th individual, and ϵ1ij, ϵ2ij, ϵ3ij, ϵ4ij, are independent normally distributed residual error terms with a mean of zero and a variance of σ^2_1, σ^2_2, σ^2_3, σ^2_4.
The covariate analysis was performed using a stepwise insertion/deletion approach. […]

[6] = patients, age 7.7 ± 1.4 years, n 13, sampling 28 days
[7] = patients, median age 4.0 (1–10) years, n 50, sampling 72 h
[8] = patients, median age 20 (5–66) years, n 309
[9] = patients, median age 22 (14–60) years, n 217
[10] = patients, median age 23 (13–59) years, n 102
[11] = pregnant women, median age 24 (15–42) years, n 103, sampling 336 h
[12] = bootstrap evaluation, 200 replicates
[13] = patients, median age 9.3 (4–15) years, n 74, sampling 28 days
[14] = patients, median age 14.8 (8–61) years, n 128, sampling 28 days
[15] = patients, median age 19 (2–55) years, n 50, sampling 63 days
[16] = prophylaxis, mean age 26 (18–55) years, n 1,111, sampling 26 weeks

patients with a concentration below the cut-off value of 175 ng/ml ([2]; Tanzanian sample of this study, day 7): 35%
F0, bootstrap mean of 200 [2, 12]: 2.45 mg
k23, bootstrap mean of 200 [2, 12]: 0.00037 h⁻¹
ka, bootstrap mean of 200 [2, 12]: 0.48 h⁻¹
θBWCL, bootstrap mean of 200 [2, 12]: 0.51
θBWVC, bootstrap mean of 200 [2, 12]: 0.34
σC (CV%), bootstrap mean of 200 [2, 12]: 61%
IIV (inter-individual variability) of CL ([2]; final model): 38%
IIV (inter-individual variability) of F0 ([2]; final model): 103%
IIV (inter-individual variability) of VC ([2]; final model): 33%
IIV (inter-individual variability) of k23 ([2]; final model): 38%
ka (first-order absorption rate constant), population estimate ([2]; final model): 0.54 h⁻¹
θBWVC, exponent of allometric power function of body weight on VC, population estimate ([2]; final model): 0.35
F0 (residual amount from the previous treatment), population estimate ([2]; final model, baseline): 2.53 mg
σC (CV%), residual error for the central compartment, population estimate ([2]; final model, intra-patient variability): 60%
k23 (metabolism rate constant), population estimate ([2]; final model, parent to metabolite (AM to DHA, LF to DLF)): 0.00037 h⁻¹
residual dose (F0) as percentage of the recommended first dose ([2]; first dose 120–480 mg): 0.3–1.3%
clearance ([2]; human, plasma, oral, present study, Tanzanian patients, sampling 7 days): 128 mL/min
Vd ([2]; human, plasma, oral, present study, Tanzanian patients, sampling 7 days, read-out: VSS (steady-state volume of distribution), population estimate for a person of 70 kg): 265 L
SMILES: CCCCN(CCCC)CC(O)c1cc(Cl)cc2c1-c1ccc(Cl)cc1/C2=C/c1ccc(Cl)cc1 (centres unmarked) [Lumefantrine, lumefantrine]
CL, population estimate for a person of 70 kg [1, 6]: 7.29 L/h
VSS, population estimate for a person of 70 kg [1, 6]: 506 L
CL, population estimate for a person of 70 kg [1, 7]: 5.4 L/h
VSS, population estimate for a person of 70 kg [1, 7]: 623 L
CL, population estimate for a person of 70 kg [1, 8]: 7.6 L/h
VSS, population estimate for a person of 70 kg [1, 8]: 361 L
CL, population estimate for a person of 70 kg [1, 9]: 21 L/h
VSS, population estimate for a person of 70 kg [1, 9]: 301 L
CL, population estimate for a person of 70 kg [1, 10]: 7 L/h
VSS, population estimate for a person of 70 kg [1, 10]: 298 L
CL, population estimate for a person of 70 kg [1, 11]: 8.7 L/h
VSS, population estimate for a person of 70 kg [1, 11]: 257 L
efficacy rates at 42 days for a day 7 concentration cut-off of 50 ng/ml ([3]; high transmission areas): 80% and 95%
efficacy rates at 42 days for a day 7 concentration cut-off of 125 ng/ml ([3]; low transmission areas): 84% and 96%

CL (clearance), population estimate [5]: 0.10 × BW^0.75 L/h/kg
CL, bootstrap mean of 200 [5]: 0.10 × BW^0.75 L/h/kg
F0 (residual amount from the previous treatment), population estimate [5]: 33.1 mg
F0, bootstrap mean of 200 [5]: 31.0 mg
IIV (inter-individual variability) of CL [5]: 12%
IIV (inter-individual variability) of F0 [5]: 175%
IIV (inter-individual variability) of VC [5]: 19%
VC (central volume of distribution), population estimate [5]: 8.93 × BW L/kg
VC, bootstrap mean of 200 [5]: 9.01 × BW L/kg
Vd [5]: 625 L
clearance [5]: 40 mL/min
inter-individual variability in concentration exposure [5]: ~12%
ka (first-order absorption rate constant), population estimate [5]: 0.15 h⁻¹
ka, bootstrap mean of 200 [5]: 0.15 h⁻¹
residual dose (F0) as percentage of an initial dose [5]: 6.7–26.7%
σC, bootstrap mean of 200 [5]: 43%
σC, residual error for the central compartment, population estimate [5]: 43%
SMILES: OC(c1cc(C(F)(F)F)nc2c(C(F)(F)F)cccc12)C1CCCCN1 (centres unmarked) [Mefloquine, mefloquine]
CL, population estimate for a person of 70 kg [1, 13]: 3.71 L/h
VSS, population estimate for a person of 70 kg [1, 13]: 1,089.2 L
CL, population estimate for a person of 70 kg [1, 14]: 1.4 L/h
VSS, population estimate for a person of 70 kg [1, 14]: 574.7 L
CL, population estimate for a person of 70 kg [1, 15]: 2.1 L/h
VSS, population estimate for a person of 70 kg [1, 15]: 767.62 L
CL, population estimate for a person of 70 kg [1, 16]: 1.75 L/h
VSS, population estimate for a person of 70 kg [1, 16]: 863 L
minimal inhibitory concentration, MIC (drug plasma concentration) [4]: 0.5 µg/mL (≈ 1.32 µM)
